From patent US5262440A, “Antitumor compositions and methods of treatment” (Eli Lilly and Company, priority 1991, dated 1993)

Columns and labels:
[1] = metabolite of sulofenur; cited from earlier work
[2] = metabolite of sulofenur; cited from earlier work; remark: listed apart in the source
[3] = all species (mice, rats, dogs, monkeys); cited from earlier work
[4] = phase I clinical studies; cited from earlier work
[5] = system: 6C3HED lymphosarcoma (Gardner lymphosarcoma, GLS); assay: Percent inhibition of tumor growth in C3H mice bearing 6C3HED lymphosarcoma (Gardner lymphosarcoma, GLS), oral; type: in vivo; conditions: oral gavage, daily for 8 days
Experimental: (§1) The compounds were tested in C3H mice bearing a 6C3HED lymphosarcoma, also known as the Gardner lymphosarcoma (GLS). The 6C3HED lymphosarcoma was obtained from the Division of Cancer Treatment, National Cancer Institute, Tumor Bank, maintained at E. G. and G. Mason Research (Worcester, Mass.). First passage tumor was stored in liquid nitrogen using standard techniques. The transplanted tumor was reestablished from the Tumor Bank every six months or as needed. The tumor was maintained by serial passage twice weekly in C3H mice.
In the procedures utilized here, the tumor was removed from passage animals and minced into 1- to 3-mm cubic fragments using sterile techniques. Tumor pieces were checked for sterility using both Antibiotic Medium 1 and Brain Heart Infusion (Difco, Detroit, Mich.). Recipient mice were shaved and the tumor pieces were implanted subcutaneously in an axillary site by trochar.
(§2) Drug therapy on the appropriate schedule was initiated on the day after tumor implantation. The compound being tested was mixed with 2.5% Emulphor EL620 from GAF Corporation (1:40 dilution in 0.9% saline). The total dosage volume for each administration was 2.5 mL. All animals were weighed at the beginning and end of administration of the subject compounds. Food and water were provided ad libitum.
(§3) Each control group and each dosage level of the treated groups consisted of 10 mice selected at random from the pool of implanted animals. The compounds were administered orally by gavage with the use of an 18-gauge needle. Compounds were dosed daily for 8 days.
The tumor was measured the day after treatment ended with two dimensional measurements (width and length) of the tumor taken using Vernier calipers. Tumor weights were calculated from these measurements using the following formula:
Tumor weight (mg)=[tumor length (mm)×[tumor width (mm)]^2 ].div.2
At least one control group of an equal number of mice was treated with the same volume of 2.5% Emulphor only. The percent inhibition is determined by subtracting the ratio of the mean tumor size of the test group relative to the control group from one and multiplying the result by 100.
(§4) The results of several experiments in mice bearing a 6C3HED lymphosarcoma when the instant compounds were administered orally are provided in Table I. In the Table, column 1 gives the dose level of the compound mixture of Example 1, column 2 provides the percent inhibition of tumor growth, and column 3 gives the number of mice which died relative to the total number of animals in the group.

[6] = system: C3H mice bearing a 6C3HED lymphosarcoma; assay: Toxicity (mice which died relative to total number in group) in C3H mice bearing 6C3HED lymphosarcoma; type: in vivo; conditions: oral gavage, daily for 8 days
Experimental: as §1, §2, §3, §4

What does the source list for O=C(Nc1ccc(Cl)cc1)NS(=O)(=O)c1ccc2c(c1)CCC2O (stereo not shown) [N-(1-hydroxyindan-5-sulfonyl)-N'-(4-chlorophenyl)urea]?
retention in humans compared with other species tested [1]: retained longer in humans than in the other species tested; contribution of metabolite to adverse effects [2]: contribute to the adverse effects; therapeutic activity of metabolite [2]: therapeutically inactive

Which results are given for O=C(Nc1ccc(Cl)cc1)NS(=O)(=O)c1ccc2c(c1)CCC2=O [N-(1-ketoindan-5-sulfonyl)-N'-(4-chlorophenyl)urea]?
retention in humans compared with other species tested [1]: retained longer in humans than in the other species tested; contribution of metabolite to adverse effects [2]: contribute to the adverse effects; therapeutic activity of metabolite [2]: therapeutically inactive

With O=C(Nc1ccc(Cl)cc1)NS(=O)(=O)c1ccc2c(c1)CCC2 [sulofenur, N-(indan-5-sulfonyl)-N'-(4-chlorophenyl)urea] as the compound, how does the adsorption [3] read?
The adsorption was “good adsorption”.

What about the “metabolism (extent)” value [3] of the same compound?
Its value is “extensive metabolism”.

And the “major metabolites in patients” value [4]?
Its value is 1-hydroxy- and 1-ketoindansulfonylureas.

For “N-[[(4-chlorophenyl)amino]carbonyl]-indene-5-sulfonamide (A) and N-[[(4-chlorophenyl)amino]carbonyl]-indene-6-sulfonamide (B) [Example 1]”, which “Percent Inhibition (of tumor growth)” value ([5]; dosage 25.0 (unit not given)) is on record?
Its value is 16%.

What about the “Percent Inhibition (of tumor growth)” value ([5]; dosage 50.0 (unit not given)) of the same compound?
Its value is 36%.

And the “Percent Inhibition (of tumor growth)” value ([5]; dosage 100.0 (unit not given))?
Its value is 77%.

What about the “Percent Inhibition (of tumor growth)” value ([5]; dosage 150.0 (unit not given)) of the same compound?
The value was 100%.

What about the “Percent Inhibition (of tumor growth)” value ([5]; dosage 300.0 (unit not given)) of the same compound?
The value was 100%.

And the “Toxic/Total (mice which died relative to total number of animals in the group)” value ([6]; dosage 25.0 (unit not given))?
The value was 0/10.

And the “Toxic/Total (mice which died relative to total number of animals in the group)” value ([6]; dosage 50.0 (unit not given))?
Its value is 0/10.

And the “Toxic/Total (mice which died relative to total number of animals in the group)” value ([6]; dosage 100.0 (unit not given))?
The value was 0/10.

What about the “Toxic/Total (mice which died relative to total number of animals in the group)” value ([6]; dosage 150.0 (unit not given)) of the same compound?
Its value is 0/10.

What about the “Toxic/Total (mice which died relative to total number of animals in the group)” value ([6]; dosage 300.0 (unit not given)) of the same compound?
The value was 0/10.
